Test results as given in patent US20020110808A1, “Toxicant-induced differential gene expression” (priority 2000, published 2002).

Test system: HepG2 cells
Assay: Differential display PCR (DD-PCR) of mRNA from treated cells
Type: cell-based, human
Conditions: visual inspection, not confirmed
Experimental: For each reverse transcription reaction, 50 ng of mRNA was incubated with a 3′ Anchored Primer (1 μM) at 65° C. for 5 minutes. The tubes were chilled and spun briefly. […] The final volume was 20 μl. Tubes were heated to 25° C. for 10 min, 42° C. for 60 min, and 70° C. for 15 min. The cDNA produced was either used immediately or stored at −20° C.
The DD-PCR was performed under the conditions recommended by Genomyx Corporation: 95° C. for 2 min; 4 cycles of 92° C. for 15 sec, 46° C. for 30 sec, 72° C. for 2 min; 25 cycles of 92° C. for 15 sec, 60° C. for 30 sec, 72° C. for 2 min; and one cycle of 72° C. for 7 min, followed by cooling at 4° C.
Stop solution (11 μl) was added to each reaction. The tubes were then heated for 2 min at 95° C. A 3-μl aliquot of each reaction was run on a 4.5% denaturing polyacrylamide gel for 16 hours at 800 V, 50° C. Under these conditions, bands ranging from 300 to 1200 base-pairs were well-resolved. Band excision and reamplification were performed according to the instructions given in the Genomyx Corporation protocol. The reamplification reaction mixture was added directly to the excised band and the PCRs were performed under the same conditions as the original DD-PCR, with the exceptions that the M13R(−48) and T7 primers (SEQ ID NO: 3 AND SEQ ID NO: 2, respectively) were used instead of the original anchored and arbitrary primers and [α-^33P]dATP was omitted. The PCR products were purified with S-400 HR microspin columns (Pharmacia).

CC(=O)Nc1ccc(O)cc1 [acetaminophen]
Number of difference bands on DD-PCR gel, Decreased (acetaminophen 0.02 mM): 0 | Number of difference bands on DD-PCR gel, Increased (acetaminophen 0.02 mM): 0 | Number of difference bands on DD-PCR gel, Decreased (acetaminophen 0.2 mM): 0 | Number of difference bands on DD-PCR gel, Increased (acetaminophen 0.2 mM): 0 | Number of difference bands on DD-PCR gel, Decreased (acetaminophen 2 mM): 1 | Number of difference bands on DD-PCR gel, Increased (acetaminophen 2 mM): 4 | Number of difference bands on DD-PCR gel, Decreased (acetaminophen 20 mM): 16 | Number of difference bands on DD-PCR gel, Increased (acetaminophen 20 mM): 18
